Experimental data from the supplement of paper PMC10307832.

Columns and labels:
Experiment in all cases: relative viability (nuclei count vs DMSO), 5 days (fraction); higher = more cells survive
Crizotinib = compound: C[C@@H](Oc1cc(-c2cnn(C3CCNCC3)c2)cnc1N)c1c(Cl)ccc(F)c1Cl [Crizotinib]
In short: (§1)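 After an overnight hold at 37 °C, lung cancer cell lines in 1536-well plates were pinned with five library-drug doses (not always all listed), each √10 from the next, on vehicle-anchored plates. The cells stayed 5 days without fresh medium, then a one-step fix, permeabilisation and Hoechst stain preceded 4× imaging and MetaXpress nuclear counts. A plate passed only with control CV under 25% and at least one doubling. Viability is the median, over plates, of treated-well nuclei relative to vehicle-well nuclei.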

Carfilzomib = compound: CC(C)C[C@H](NC(=O)[C@H](CCc1ccccc1)NC(=O)CN1CCOCC1)C(=O)N[C@@H](Cc1ccccc1)C(=O)N[C@@H](CC(C)C)C(=O)[C@@]1(C)CO1 [Carfilzomib]
In short: as §1

Olaparib = compound: O=C(c1cc(Cc2n[nH]c(=O)c3ccccc23)ccc1F)N1CCN(C(=O)C2CC2)CC1 [Olaparib]
In short: as §1

Olaparib + Alpelisib = compound: O=C(c1cc(Cc2n[nH]c(=O)c3ccccc23)ccc1F)N1CCN(C(=O)C2CC2)CC1 [Olaparib] + Cc1nc(NC(=O)N2CCC[C@H]2C(N)=O)sc1-c1ccnc(C(C)(C)C(F)(F)F)c1 [Alpelisib] (partner 2 µM)
In short: (§2)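 Lung cancer cell lines were seeded in 1536-well plates and dosed by pin tool the next day, with either a single drug or a fixed anchor-drug dose combined with five library-drug doses (not always all listed) spaced in √10 steps. Five days later, one step fixed the cells and stained their nuclei (final 0.05% Triton X-100, 1% formaldehyde, 1 ug/ml Hoechst), and nuclei were counted on 4× images. Relative viability is the nuclei count in treated wells divided by the count in vehicle wells, and each value is the median of duplicate plates.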

Crizotinib + Trametinib = compound: C[C@@H](Oc1cc(-c2cnn(C3CCNCC3)c2)cnc1N)c1c(Cl)ccc(F)c1Cl [Crizotinib] + CC(=O)Nc1cccc(-n2c(=O)n(C3CC3)c(=O)c3c(Nc4ccc(I)cc4F)n(C)c(=O)c(C)c32)c1 [Trametinib] (partner 0.02 µM)
In short: as §2

With NCI-H1793 the relative viability (Crizotinib; 0.03162 µM) was 0.987, the relative viability (Crizotinib; 1 µM) was 1.09 and the relative viability (Carfilzomib; 0.003162 µM) was 1.03. It also gave a relative viability (Carfilzomib; 0.01 µM) of 0.827, a relative viability (Carfilzomib; 0.03162 µM) of 0.9 and a relative viability (Carfilzomib; 0.1 µM) of 0.165. It also gave a relative viability (Olaparib; 0.08 µM) of 0.93, a relative viability (Olaparib; 0.253 µM) of 0.856 and a relative viability (Olaparib; 2.53 µM) of 0.824. The relative viability (Olaparib; 8 µM) was 0.776, the relative viability (Olaparib; 8 µM, anchor plate) was 0.911 and the relative viability (Olaparib + Alpelisib; first compound 0.08 µM) was 0.683. The relative viability (Olaparib + Alpelisib; first compound 0.253 µM) was 0.664, the relative viability (Olaparib + Alpelisib; first compound 2.53 µM) was 0.768 and the relative viability (Olaparib + Alpelisib; first compound 8 µM) was 0.601. The relative viability (Crizotinib + Trametinib; first compound 0.03162 µM) was 0.467, the relative viability (Crizotinib + Trametinib; first compound 0.1 µM) was 0.399 and the relative viability (Crizotinib + Trametinib; first compound 1 µM) was 0.461.
